Like-named read-outs stand apart in the source and are kept apart here. A value given as a limit tells only on which side of the number the result lay.

For data set [1], the system named is MPXV. The format is cell-based, Mpox virus.
The test system of data set [2] is MPXV. The format is cell-based, Mpox virus. The source holds these as a separate data set.
For data set [3], the system named is MPXV Liberia strain (West African strain, clade IIa). The data set is classed as cell-based, Mpox virus.
Data set [4] relates to MPXV SPL-mpx2A7 strain (clade IIb). The data set is classed as cell-based, Mpox virus.
Data set [5] deals with vaccinia virus (LC16m8). The format is cell-based.
In data set [6] the test system is cowpox virus (Brighton Red). The data set is classed as cell-based.
For data set [7], the system named is MPXV. Put plainly: microbe, parasite or virus in culture. Particulars: Monkeypox virus; for IC50: Vero C1008, read-out: Anti-MPXV activity: IC50; for IC90: Vero C1008, read-out: Anti-MPXV activity: IC90. The format is cell-based, Mpox virus.
The test system of data set [8] is MPXV. The format is cell-based, Mpox virus. The source holds these as a separate data set.
The subject of data set [9] is MPXV. Put plainly: microbe, parasite or virus in culture. The format is cell-based, Mpox virus. Particulars: for IC50 / IC90: Monkeypox virus, Huh-7, 24 h; for IC50: read-out: Anti-MPXV activity: IC50; for IC90: read-out: Anti-MPXV activity: IC90.
Data set [10] has as its system MPXV. The data set is classed as cell-based, Mpox virus. This is another data set of the same source.
Data set [11] has as its system ISG15 and ISG56. The data set is classed as cell-based, human.
The nature of data set [12]: in vitro. The settings on record: African green monkey.
The nature of data set [13]: in vitro. The settings on record: human.
In data set [14] the test system is MPXV Zr-599 (Congo Basin strain, clade I). The data set is classed as cell-based, Mpox virus.

heparin: in [1], the “antiviral activity by treatment period (a whole life cycle 0-24 h, b entry phase 0-2 h, c postentry 2-24 h)” value (“antiviral activity by treatment period” for short) is reported as “significant antiviral activity under condition b”.

The IC50 is the concentration that gives 50% inhibition. The IC90 is the concentration at which the effect reaches the 90% level. Turning to `COc1c(C)c2c(c(O)c1C/C=C(\C)CCC(=O)O)C(=O)OC2` [MPA, mycophenolic acid], the “MPXV protein expression (immunofluorescence)” value (“MPXV protein expression” for short) in data set [2] is reported as “drastically reduced”. Moreover, the “expression of viral proteins (immunofluorescence)” value (from here on “expression of viral proteins”) in data set [3], in [4], in data set [5] and in data set [6] was “clearly reduced” each time. Moreover, the 50% inhibitory concentration (IC50) in data set [7] is 260 nM; in data set [9], 940 nM. Besides, the values for the IC90 in data set [7] and in data set [9] were 370 nM and 3350 nM, respectively. The “antiviral activity by treatment period” value in [1] was “significantly reduced under conditions a and c but not under condition b”. The “virions observed in cells by electron microscopy” value (shortened to “virions observed in cells”) in data set [8] is “few virions were observed”. Besides, the “selectivity index (SI = CC50/IC50)” value in data set [9] was more than 10.6. In data set [10], the “effect of guanosine supplementation on MPA-mediated reduction of viral DNA levels” value is listed as “clearly recovered the MPA-mediated reduction of viral DNA levels in a dose-dependent manner”. The “induction of interferon-stimulated genes ISG15 and ISG56” value in data set [11] is on record as “did not observe significant induction”. Moreover, the CC50 in data set [12] was more than 100000 nM; in data set [13] it was more than 10000 nM.

With `Nc1ccn([C@@H]2O[C@H](CO)[C@@H](O)C2(F)F)c(=O)n1` [gemcitabine], in data set [2], the “MPXV protein expression” value is recorded as “drastically reduced”. The “expression of viral proteins” value in data set [3], in data set [4], in [5] and in [6] was “clearly reduced” each time. Besides, the IC50 in data set [7] came out at 24 nM. In addition, the IC90 in [7] amounted to 26 nM. The “antiviral activity by treatment period” value in data set [1] was “significantly reduced under conditions a and c but not under condition b”. In data set [8], the “virions observed in cells” value is on record as “few virions were observed”. Moreover, the CC50 in [12] is more than 100000 nM.

Regarding `CC[C@H](CC#N)OC(=O)N[C@@H](C)c1cccc(NC(=O)Nc2ccc(-c3cnco3)c(OC)c2)c1` [AVN-944], in data set [9], the concentration for half-maximal inhibition (IC50) turned out to be 15 nM and the IC90 turned out to be 42 nM. The compound further displayed a CC50 in data set [13] of more than 10000 nM.

As for `COc1c(C)c2c(c(O)c1C/C=C(\C)CCC(=O)OCCN1CCOCC1)C(=O)OC2` [Mycophenolate mofetil, mycophenolate mofetil], in data set [9], the IC50 came out at 340 nM and the IC90 was determined as 1080 nM. The same compound registered a CC50 in [13] of more than 10000 nM.

Turning to `O=c1[nH]c(=O)n([C@H]2C[C@H](O)[C@@H](CO)O2)cc1C(F)(F)F` [trifluridine], the “MPXV protein expression” value in [2] is listed as “drastically reduced”. The “expression of viral proteins” value in [3], in data set [4], in data set [5] and in data set [6] was “clearly reduced” each time. In addition, the IC50 in data set [7] was 490 nM. Besides, the IC90 in data set [7] turned out to be 890 nM. Also, in data set [1], the “antiviral activity by treatment period” value was “significantly reduced under conditions a and c but not under condition b”. Besides, the “virions observed in cells” value in data set [8] is “few virions were observed”. The compound also yielded a CC50 in [12] of more than 100000 nM.

In the case of `CCCCCCCCCCCCCCCCOCCCOP(=O)(O)CO[C@H](CO)Cn1ccc(N)nc1=O` [brincidofovir], the “number of surviving cells (fold relative to DMSO-treated control cells)” value in data set [14] is 103 fold. Moreover, in data set [7], the IC50 worked out at 2100 nM and the concentration for an effect of 90% (IC90) was found to be 4290 nM. For the same compound, the “antiviral activity by treatment period” value in data set [1] was “significant antiviral activity in conditions a and c but not in condition b”. Moreover, the CC50 in data set [12] was more than 10000 nM.

For `NC(=O)c1ncn([C@@H]2O[C@H](CO)[C@@H](O)[C@H]2O)n1` [Ribavirin, ribavirin], in data set [9], the IC50 was found to be 13000 nM and the IC90 amounted to 44000 nM. In data set [13], this compound gave a CC50 of more than 100000 nM.

`COc1cc(NC(=O)Nc2cccc(CNC(=O)O[C@H]3CCOC3)c2)ccc1-c1cnco1` [Merimepodib, merimepodib]: in data set [9], the IC50 is 290 nM and the IC90 was 610 nM. This compound also returned a CC50 in [13] of more than 10000 nM.

Consider `O=C(NN1C(=O)[C@@H]2[C@@H]3C=C[C@@H]([C@H]4C[C@@H]34)[C@@H]2C1=O)c1ccc(C(F)(F)F)cc1` [tecovirimat], for which the “number of surviving cells (fold relative to DMSO-treated control cells)” value in data set [14] is 223 fold. Also, the “virions observed in cells” value in data set [8] was “crescents, immature, and mature virions but not wrapped virions were observed”.

The values are drawn from article PMC10434032 (Microbiology Spectrum, 2023).
